Laboratory results reported in ChEMBL document CHEMBL1133905, “Novel lipase-catalysed enantioselective deacetylation of (+/-)-5-acetoxy-3-(4-fluorophenyl)-2-phenylisoxazolidine” (2001).
In brackets after ≈: the same amount, converted by molar mass.

Columns and labels:
[1] = tested on: Mycobacterium tuberculosis; experiment: Inhibition against Mycobacterium tuberculosis at 6.25 ug/mL; assay type: functional
[2] = tested on: Mycobacterium tuberculosis; experiment: Inhibition against Mycobacterium tuberculosis; assay type: functional

Question: How did the inhibition at 6.25 µg/mL [1] turn out when `CC(=O)OC1CC(c2ccc(F)cc2)N(c2ccccc2)O1` (racemic) was run?
Answer: 78%

Question: What about the MIC [2] of the same molecule?
Answer: 6.25 µg/mL (≈ 20.7 µM)
